The NIST ThermoML archive (doi:10.1016/j.jct.2008.07.008)

Columns and labels:
[1] = refractive index (Na D-line) (dimensionless); details: 101.33 kPa, Liquid, Standard Abbe refractometry
[2] = refractive index (Na D-line) (dimensionless); xn = mol fraction of the nth substance listed; details: 101 kPa, Liquid, Standard Abbe refractometry

CCCCCCCC [octane]
[1]
Details	refractive index
277.8 K	1.404
279.68 K	1.4032
280.36 K	1.4028
280.51 K	1.4027
281.66 K	1.4021
282.65 K	1.4017
283.88 K	1.4012
284.73 K	1.4007

N#Cc1ccccc1 [benzonitrile]
[1]
Details	refractive index
277.43 K	1.5321
278.33 K	1.5318
279.49 K	1.5312
280.36 K	1.5307
280.38 K	1.5307
280.86 K	1.5305
281.97 K	1.5299
284.13 K	1.5289

CCCCCCCC [octane] + N#Cc1ccccc1
Details	refractive index
[2], 280.36 K, x2 = 0	1.4028

N#Cc1ccccc1 [benzonitrile] + CCCCCCCC
[2]
Details	refractive index
280.36 K, x1 = 0.092	1.4104
280.36 K, x1 = 0.244	1.4248
280.36 K, x1 = 0.344	1.4353
280.36 K, x1 = 0.558	1.4613
280.36 K, x1 = 0.644	1.4726
280.36 K, x1 = 0.762	1.4901
280.36 K, x1 = 0.821	1.4996
280.36 K, x1 = 0.927	1.5176
280.36 K, x1 = 1	1.5307
282.93 K, x1 = 0.558	1.4599
283.35 K, x1 = 0.344	1.4339
283.66 K, x1 = 0.558	1.4597
283.67 K, x1 = 0.344	1.4337
284.57 K, x1 = 0.344	1.4333
284.78 K, x1 = 0.558	1.4591
285.65 K, x1 = 0.344	1.4327
285.74 K, x1 = 0.558	1.4586
286.64 K, x1 = 0.558	1.4583
286.73 K, x1 = 0.344	1.4322
287.64 K, x1 = 0.558	1.4578
287.77 K, x1 = 0.344	1.4318
288.61 K, x1 = 0.558	1.4574
288.82 K, x1 = 0.344	1.4313
